Test [1] relates to phenyl-p-quinone writhing. Briefly: analgetic activity in the phenyl-p-quinone writhing assay. It counts as in vivo. The settings on record: Mus musculus, sc; subcutaneous dose effecting an approximately 50% inhibition of writhing in mice. The text has this: 3-(4-piperidinyl)-1,2-benzisothiazoles of the present invention are useful as analgetics due to their ability to alleviate pain in mammals. […] Exptl. Biol Med., 95 729 (1957)]. Thus, for instance, the subcutaneous dose effecting an approximately 50% inhibition of writhing (ED50) in mice produced in this assay is as shown in Table 2.

Test [2] has as its system apomorphine-induced climbing. The test is described as follows: antipsychotic activity in the climbing mice assay (apomorphine-induced climbing). It counts as in vivo, CK-1 male mice. The settings on record: Mus musculus, ip, inhibition of climbing, compound intraperitoneally 30 minutes prior to apomorphine 1.5 mg/kg subcutaneously, readings at 10, 20 and 30 minutes, linear regression. Here is the method: The subject CK-1 male mice (23-27 grams) are group-housed under standard laboratory conditions. The mice are individually placed in wire mesh stick cages (4"×4" by 10") and are allowed one hour for adaptation and exploration of the new environment.
For evaluation of climbing, 3 readings are taken at 10, 20 and 30 minutes after apomorphine administration according to the following scale: […]
Mice consistently climbing before the injection of apormorphine will be discarded.
With full-developed apomorphine climbing, the animals are hanging on to the cage walls, rather motionless, over longer periods of time. By contrast, climbs due to mere motor stimulation usually only last a few seconds.

Read-outs that look alike come from different tables or passages of the source.

This passage reports ED50 results from US4458076A, “3-(4-Piperidinyl)-1,2-benzisothiazoles” (Hoechst-Roussel Pharmaceuticals, priority 1983, dated 1984).

`CC(C)=CCN1CCC2(C)c3cc(O)ccc3CC1C2C` (centres unmarked) [pentazocine, reference compound] displayed an ED50 in test [1] of 1.3 mg/kg. As to `O=c1[nH]c2ccccc2n1CCCN1CCC(c2nsc3ccccc23)CC1` [3-[1-(1,3-Dihydro-2-oxo-2H-benzimidazol-1-ylpropyl)-4-piperidinyl]-1,2-benzisothiazole], the ED50 in test [2] came to 0.32 mg/kg.

Take `Cc1[nH]c2ccccc2c1CCCN1CCC(c2nsc3ccccc23)CC1` [3-{3-[4-(1,2-benzisothiazol-3-yl)piperidinyl]propyl}-2-methyl indole]: in test [2], the ED50 was 0.17 mg/kg. Molecule `CCC(=O)O[C@](Cc1ccccc1)(c1ccccc1)[C@H](C)CN(C)C` [propoxyphene, reference compound] came in with an ED50 in test [1] of 3.9 mg/kg. Same read-out and setting: the same measure for `c1ccc2c(C3CCNCC3)nsc2c1` [3-(4-piperidinyl)-1,2-benzisothiazole]: 2.1 mg/kg. As to `Fc1ccc2c(CCCN3CCC(c4nsc5ccccc45)CC3)noc2c1` [3-[1-(6-Fluoro-1,2-benzisoxazole-3-propyl)-4-piperidinyl]-1,2-benzisothiazole], the figures for the ED50 in test [2] and in test [1] were 0.17 mg/kg and 0.3 mg/kg, respectively. For `c1ccc(CCN2CCC(c3nsc4ccccc34)CC2)cc1` [3-{1-[Phenethyl]-4-piperidinyl}-1,2-benzisothiazole], the ED50 in test [2] was determined as 7 mg/kg; in test [1] it was 0.2 mg/kg. For `O=C(CCCN1CCC(O)(c2ccc(Cl)cc2)CC1)c1ccc(F)cc1` [haloperidol, reference compound], the ED50 in test [2] (read-out: ANT[…] (ED50 mg/kg)) is 0.11 mg/kg. `Fc1ccc(C(CCCN2CCC(c3nsc4ccccc34)CC2)c2ccc(F)cc2)cc1` [3-{1-[4,4-bis-(4-Fluorophenyl)-1-butyl]-4-piperidinyl}-1,2-benzisothiazole] returned an ED50 in test [2] of 3.3 mg/kg. `c1ccc2c(C3CCN(CC4CC4)CC3)nsc2c1` [3-{1-(cyclopropylmethyl)-4-piperidinyl}-1,2-benzisothiazole]: the ED50 in test [2] turned out to be 5.8 mg/kg; in test [1], 0.07 mg/kg. Turning to `CN1CCC(c2nsc3ccccc23)CC1` [3-(1-Methyl-4-piperidinyl)-1,2-benzisothiazole], in test [1], the ED50 is 0.73 mg/kg.
